SMILES strings stand for the structures. Numbered stars: 1 amine (or outer) side, 2 acyl side, 3 side chain; on linkers, the order of the positions; unused ones are H or OH. Square brackets hold non-standard residues; d marks the D form. Side chains are listed from the residue outwards. Peptide text beside a SMILES is read from it. * marks the point of attachment. C18 diacid = O=C(O)CCCCCCCCCCCCCCCCC(=O)*; γGlu = O=C(O)[C@H](CCC(=O)[*:2])N[*:1]; AEEA = NCCOCCOCC(=O)O; Aib = CC(C)(N)C(=O)O

The target in this assay is T1, human glucagon receptor (Homo sapiens, UniProt P47871).
T1 construct: expressed in transfected cells; host or cells: BHK cells (parent BHK570, CRE luciferase clone BHK/KZ10-20-48), clone pLJ6'-4-25
T1 sequence (P47871 26-477): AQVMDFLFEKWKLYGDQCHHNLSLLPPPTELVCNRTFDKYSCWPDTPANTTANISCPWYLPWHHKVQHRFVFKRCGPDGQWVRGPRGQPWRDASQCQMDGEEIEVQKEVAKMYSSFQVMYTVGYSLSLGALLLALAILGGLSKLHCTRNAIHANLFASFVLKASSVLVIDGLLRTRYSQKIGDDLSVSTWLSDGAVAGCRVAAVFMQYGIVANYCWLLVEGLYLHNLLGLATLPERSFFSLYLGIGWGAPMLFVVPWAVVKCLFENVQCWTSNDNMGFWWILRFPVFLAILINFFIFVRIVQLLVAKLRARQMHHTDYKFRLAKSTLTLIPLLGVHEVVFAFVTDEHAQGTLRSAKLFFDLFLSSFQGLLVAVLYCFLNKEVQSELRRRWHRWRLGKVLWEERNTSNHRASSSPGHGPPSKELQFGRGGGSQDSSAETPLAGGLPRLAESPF
The experiment in a line: Glucagon receptor binding, 125I-glucagon displacement SPA on isolated membranes. As to conditions: displacement of 125I-glucagon from membranes; read-out: IC50 GlucR. On the procedure: The purpose of this assay was to test the in vitro receptor binding activity (i.e. affinity) of the glucagon derivatives of the invention. The receptor binding activity is a measure of affinity of a derivative for the human glucagon receptor.
The receptor binding of each compound to the human glucagon receptor was measured in a displacement binding assay. In this type of assay a labelled ligand (in this case 125I-glucagon) is bound to the receptor. Each derivative was added in a series of concentrations to isolated membranes containing the human glucagon receptor and displacement of the labelled ligand is monitored. The receptor binding was reported as the concentration at which half of the labelled ligand is displaced from the receptor, the IC50 value.
In order to test the binding of the derivatives to albumin, the assay may be performed in a very low concentration of serum albumin (max. 0.001% final assay concentration) as well as in the presence of a higher concentration of serum albumin (0.2% final assay concentration). An increase of the IC50 value, in the presence of serum albumin indicates an affinity to serum albumin and represents a method to predict a protracted pharmacokinetic profile of the test substance in animal models.
The following chemicals were used in the assay: DMEM w Glutamax (Gibco 61965-026), Pen/strep (Invitrogen 15140-122), G418 (Invitrogen 10131-027), Versene (Gibco 15040), 1 M Hepes (Gibco 15630), PBS (Invitrogen 14190-094), fetal calf serum (Invitrogen 16140-071), MgCl2 (Merck 1.05832.1000), EDTA (Invitrogen 15575-038), CaCl2 (Sigma, C5080), Tween 20 (Amresco 0850C335), ovalbumin (Sigma A5503), SPA particles (wheat germ agglutinin (WGA) SPA beads, Perkin Elmer RPNQ0001), [125I]-glucagon (produced in-house), OptiPlate™-96 (Packard 6005290).
HME buffer consisted of 25 mM HEPES, 2 mM MgCl2 and 1 mM EDTA, and pH was adjusted to 7.4. Assay buffer consisted of 50 mM HEPES supplemented with 5 mM MgCl2, 1 mM CaCl2, 0.02% Tween 20 and 0.1% Ovalbumin, and pH was adjusted to 7.4.
The cells used in this assay (clone BHK hGCGR A3*25) were BHK cells stable transfected with an expression plasmid containing the cDNA encoding the human glucagon receptor.
The cells were grown at 5% CO2 in DMEM, 10% fetal calf serum, 1% Pen/Strep (Penicillin/Streptomycin) and 1.0 mg/ml of the selection marker G418. To make a membrane preparation the cells were grown to approximately 80% confluence. The cells were washed twice in phosphate-buffered saline and harvested. The cells were pelleted using a brief centrifugation and the cell pellet was kept on ice. Lyse the cells by adding approx. 5 ml HME buffer, mix by pipetting and snap freeze in liquid nitrogen. Thaw quickly and add HME buffer to 10 ml. The cell pellet was homogenised with an ULTRA-THURRAX dispersing instrument for 20-30 sec. The homogenate was centrifuged at 20.000×G, 4° C. for 10 min. The pellet was re-suspended (homogenised) in 1-2 ml HME buffer. The protein concentration was determined. The membranes were aliquoted and snap-frozen in liquid nitrogen and stored at minus 80° C.
1. For the receptor binding assay, 50 μl of the assay buffer was added to each well of an assay plate.
2. Test compounds were serially diluted to give the following concentrations: 8×10EE-7 M, 8×10EE-8 M, 8×10EE-9 M, 8×10EE-10 M, 8×10EE-11 M, 8×10EE-12 M and 8×10EE-13 M. Twenty-five μl were added to appropriate wells in the assay plate.
3. Cell membrane aliquots were thawed and diluted to their working concentration. Fifty μl were added to each well in the assay plate.
4. WGA SPA beads were suspended in assay buffer at 20 mg/ml. The suspension was diluted to 10 mg/ml in assay buffer just prior to addition to the assay plate. Fifty μl were added to each well in the assay plate.
5. The incubation was started by adding 25 μl of 480 pM solution of [125I]-glucagon to each well of the assay plate. A 25 μl aliquot was reserved for measuring total counts/well.
6. The assay plate was incubated for 2 h at 25° C.
7. […]
For the molecule `CC(C)C[C@H](NC(=O)[C@H](Cc1ccc(O)cc1)NC(=O)[C@H](CCCCN)NC(=O)[C@H](CO)NC(=O)[C@H](CC(C)C)NC(=O)[C@H](CC(=O)O)NC(=O)[C@H](CO)NC(=O)[C@@H](NC(=O)[C@H](Cc1ccccc1)NC(=O)[C@@H](NC(=O)CNC(=O)[C@H](CCC(N)=O)NC(=O)C(C)(C)NC(=O)[C@@H](N)Cc1c[nH]cn1)[C@@H](C)O)[C@@H](C)O)C(=O)N[C@@H](CCC(=O)O)C(=O)N[C@@H](CO)C(=O)N[C@@H](CCCNC(=N)N)C(=O)N[C@@H](CCCNC(=N)N)C(=O)N[C@@H](C)C(=O)N[C@@H](CCCNC(=N)N)C(=O)N[C@@H](CCC(=O)O)C(=O)N[C@@H](Cc1ccccc1)C(=O)N[C@H](C(=O)N[C@@H](CCC(N)=O)C(=O)N[C@@H](Cc1c[nH]c2ccccc12)C(=O)N[C@@H](CC(C)C)C(=O)N[C@@H](CC(C)C)C(=O)N[C@@H](CCCCNC(=O)CC[C@H](NC(=O)COCCOCCNC(=O)COCCOCCNC(=O)CC[C@H](NC(=O)CC[C@H](NC(=O)CCCCCCCCCCCCCCCCC(=O)O)C(=O)O)C(=O)O)C(=O)O)C(=O)N[C@H](C(N)=O)[C@@H](C)O)C(C)C` [Example 20, N^ε29-[(4S)-4-carboxy-4-[[2-[2-[2-[[2-[2-[2-[[(4S)-4-carboxy-4-[[(4S)-4-carboxy-4-(17-carboxyheptadecanoylamino)butanoyl]amino]butanoyl]amino]ethoxy]ethoxy]acetyl]amino]ethoxy]ethoxy]acetyl]amino]butanoyl]-[Aib2,Leu10,Glu15,Arg20,Glu21,Leu27,Lys28]-Glucagon amide] (H-H[Aib]QGTFTSDLSKYLESRRAREFVQWLLK([γGlu-AEEA-AEEA-γGlu-γGlu-C18 diacid])T-NH2; N-terminus assumed), the IC50 was determined as 6.7 nM.
In the case of `CC(C)C[C@H](NC(=O)[C@H](Cc1ccc(O)cc1)NC(=O)[C@H](CCCCN)NC(=O)[C@H](CO)NC(=O)[C@H](CC(C)C)NC(=O)[C@H](CC(=O)O)NC(=O)[C@H](CO)NC(=O)[C@@H](NC(=O)[C@H](Cc1ccccc1)NC(=O)[C@@H](NC(=O)CNC(=O)[C@H](CCC(N)=O)NC(=O)C(C)(C)NC(=O)[C@@H](N)Cc1c[nH]cn1)[C@@H](C)O)[C@@H](C)O)C(=O)N[C@@H](CCC(=O)O)C(=O)N[C@@H](CO)C(=O)N[C@@H](CCCNC(=N)N)C(=O)N[C@@H](CCCNC(=N)N)C(=O)N[C@@H](C)C(=O)N[C@@H](CCCNC(=N)N)C(=O)N[C@@H](CCC(=O)O)C(=O)N[C@@H](Cc1ccccc1)C(=O)N[C@H](C(=O)N[C@@H](CCC(N)=O)C(=O)N[C@@H](Cc1c[nH]c2ccccc12)C(=O)N[C@@H](CC(C)C)C(=O)N[C@@H](CC(C)C)C(=O)N[C@@H](CCCCNC(=O)CC[C@H](NC(=O)CC[C@H](NC(=O)COCCOCCNC(=O)COCCOCCNC(=O)CC[C@H](NC(=O)CCCCCCCCCCCCCCCCC(=O)O)C(=O)O)C(=O)O)C(=O)O)C(=O)N[C@H](C(N)=O)[C@@H](C)O)C(C)C` [Example 23, N^ε28-[(4S)-4-carboxy-4-[[(4S)-4-carboxy-4-[[2-[2-[2-[[2-[2-[2-[[(4S)-4-carboxy-4-(17-carboxyheptadecanoylamino)butanoyl]amino]ethoxy]ethoxy]acetyl]amino]ethoxy]ethoxy]acetyl]amino]butanoyl]amino]butanoyl]-[Aib2,Leu10,Glu15,Arg20,Glu21,Leu27,Lys28]-Glucagon amide] (H-H[Aib]QGTFTSDLSKYLESRRAREFVQWLLK([γGlu-γGlu-AEEA-AEEA-γGlu-C18 diacid])T-NH2; N-terminus assumed) it was 6.4 nM.
In the case of `CC(C)C[C@H](NC(=O)[C@H](CC(=O)O)NC(=O)[C@H](CC(C)C)NC(=O)[C@H](Cc1ccc(O)cc1)NC(=O)[C@H](CCCCN)NC(=O)[C@H](CO)NC(=O)[C@H](CC(C)C)NC(=O)[C@H](CC(=O)O)NC(=O)[C@H](CO)NC(=O)[C@@H](NC(=O)[C@H](Cc1ccccc1)NC(=O)[C@@H](NC(=O)CNC(=O)[C@H](CCC(N)=O)NC(=O)C(C)(C)NC(=O)[C@@H](N)Cc1c[nH]cn1)[C@@H](C)O)[C@@H](C)O)C(=O)N[C@@H](CCCCN)C(=O)N[C@@H](CCCNC(=N)N)C(=O)N[C@@H](C)C(=O)N[C@@H](CCCNC(=N)N)C(=O)N[C@@H](CCC(=O)O)C(=O)N[C@@H](Cc1ccccc1)C(=O)N[C@H](C(=O)N[C@@H](CCC(N)=O)C(=O)N[C@@H](Cc1c[nH]c2ccccc12)C(=O)N[C@@H](CC(C)C)C(=O)N[C@@H](CC(C)C)C(=O)N[C@@H](CCCCNC(=O)CC[C@H](NC(=O)CC[C@H](NC(=O)COCCOCCNC(=O)COCCOCCNC(=O)CC[C@H](NC(=O)CCCCCCCCCCCCCCCCC(=O)O)C(=O)O)C(=O)O)C(=O)O)C(=O)N[C@H](C(N)=O)[C@@H](C)O)C(C)C` [Example 26, N^ε28-[(4S)-4-carboxy-4-[[(4S)-4-carboxy-4-[[2-[2-[2-[[2-[2-[2-[[(4S)-4-carboxy-4-(17-carboxyheptadecanoylamino)butanoyl]amino]ethoxy]ethoxy]-acetyl]amino]ethoxy]ethoxy]acetyl]amino]butanoyl]amino]butanoyl]-[Aib2,Leu10,Leu16,Lys17,Arg20,Glu21, Leu27,Lys28]-Glucagon amide] (H-H[Aib]QGTFTSDLSKYLDLKRAREFVQWLLK([γGlu-γGlu-AEEA-AEEA-γGlu-C18 diacid])T-NH2) it was 4 nM.
Turning to `CC(C)C[C@H](NC(=O)[C@H](Cc1ccc(O)cc1)NC(=O)[C@H](CCCCN)NC(=O)[C@H](CO)NC(=O)[C@H](CC(C)C)NC(=O)[C@H](CC(=O)O)NC(=O)[C@H](CO)NC(=O)[C@@H](NC(=O)[C@H](Cc1ccccc1)NC(=O)[C@@H](NC(=O)CNC(=O)[C@H](Cc1c[nH]cn1)NC(=O)C(C)(C)NC(=O)[C@@H](N)Cc1c[nH]cn1)[C@@H](C)O)[C@@H](C)O)C(=O)N[C@@H](CCC(=O)O)C(=O)N[C@@H](CO)C(=O)N[C@@H](CCCCN)C(=O)N[C@@H](CCCNC(=N)N)C(=O)N[C@@H](C)C(=O)N[C@@H](CCCNC(=N)N)C(=O)N[C@@H](CCC(=O)O)C(=O)N[C@@H](Cc1ccccc1)C(=O)N[C@H](C(=O)N[C@@H](CCC(N)=O)C(=O)N[C@@H](Cc1c[nH]c2ccccc12)C(=O)N[C@@H](CC(C)C)C(=O)N[C@@H](CC(C)C)C(=O)N[C@@H](CCCCNC(=O)CC[C@H](NC(=O)CC[C@H](NC(=O)COCCOCCNC(=O)COCCOCCNC(=O)CC[C@H](NC(=O)CCCCCCCCCCCCCCCCC(=O)O)C(=O)O)C(=O)O)C(=O)O)C(=O)N[C@H](C(N)=O)[C@@H](C)O)C(C)C` [Example 27, N^ε28-[(4S)-4-carboxy-4-[[(4S)-4-carboxy-4-[[2-[2-[2-[[2-[2-[2-[[(4S)-4-carboxy-4-(17-carboxyheptadecanoylamino)butanoyl]amino]ethoxy]ethoxy]acetyl]amino]ethoxy]ethoxy]acetyl]amino]butanoyl]amino]butanoyl]-[Aib2,His3,Leu10,Glu15,Lys17,Arg20,Glu21,Leu27, Lys28]-Glucagon amide] (H-H[Aib]HGTFTSDLSKYLESKRAREFVQWLLK([γGlu-γGlu-AEEA-AEEA-γGlu-C18 diacid])T-NH2; N-terminus assumed), the IC50 was found to be 0.7 nM.

Source of the values: patent US9474790B2, “Stable, protracted GLP-1/glucagon receptor co-agonists for medical use” (Novo Nordisk A/S, priority 2013, dated 2016).
